# Data as given in PMC9837035 (Nature Communications, 2023).
# Several values for one entry are separate records, joined by “and”; a condition that tells them apart may be missing. Equal values may be shown once.
# Legend:
# [1] = tested on: BCL11A and ZBTB7A in HUDEP-2 cells; assay: RT-qPCR of BCL11A and ZBTB7A in HUDEP-2 cells; type: cell-based, human; conditions: for expression of BCL11A and ZBTB7A: HUDEP-2
# Procedure: Total cellular RNA was prepared using the Tissue Total RNA Mini Kit (FAVORGEN), and cDNA was synthesized using ReverTra Ace Master Mix (TOYOBO). Expression of target genes was analyzed using THUNDERBIRD SYBR qPCR Mix (TOYOBO) on a CFX Connect Real Time System (Bio-Rad). The qPCR data were acquired on CFX Maestro (Bio-Rad). Primers are listed in Supplementary Table 10. GAPDH was used as a reference. Primers were purchased from INTEGRATED DNA TECHNOLOGIES or FASMAC.
# [2] = tested on: BCL11A occupancy at the β-globin locus; assay: ChIP-qPCR with antibody against BCL11A in HUDEP-2 cells; type: cell-based, human; set-up: ChIP-qPCR, antibody against BCL11A: scale not given here; conditions: for occupancies of BCL11A in the BGLT3 gene region: HUDEP-2, 4 days
# Procedure: A total of 0.5–1 × 10^6 cells were cross-linked with 1% formaldehyde for 10 min at room temperature and the reaction was quenched with 250 mM glycine. Cross-linked cells were then lysed with buffer 1 (15 mM Tris-HCl (pH 7.5), 60 mM KCl, 15 mM NaCl, 5 mM MgCl2, 0.1 mM EGTA, 300 mM sucrose, […], 1 mM phenylmethanesulfonyl fluoride (PMSF), 0.5% NP40) and incubated on ice for 10 min. After centrifugation, the pellet was re-suspended in buffer 2 (15 mM Tris-HCl (pH 7.5), 60 mM KCl, 15 mM NaCl, 5 mM MgCl2, 0.1 mM EGTA, 1.2 M sucrose, […], 1 mM PMSF). After centrifugation, the pellet was then re-suspended in MNase buffer (50 mM Tris-HCl (pH 7.5), 1 mM CaCl2, 4 mM MgCl2, 320 mM sucrose, 1 mM PMSF) and digested with 100 U of micrococcal nuclease (Takara) at 37 °C for 15 min. After the reaction was quenched with 20 mM EDTA, the supernatants were incubated with antibodies (anti-H3K9me2 (1:100), Abcam, ab1220; anti-H3K9ac (1:100), Active Motif, 39917; Goat anti-IgG (H + L) (1:100), Jackson Immunoresearch; anti-BCL11A (1:100), Novus Biologicals, NB600-261; anti-ZBTB7A (1:100), Thermo Fisher Scientific, eBioscience (13E9); anti-CHD3 (1:100), Novus Biologicals, NB-100-60412; anti-CHD4 (1:100), abcam, ab240640) and Protein A/G PLUS-Agarose (Santa Cruz Biotechnology) overnight at 4 °C. Beads were washed sequentially once with the following buffers: wash buffer A (50 mM Tris-HCl (pH 7.5), 75 mM NaCl, 10 mM EDTA, 0.01% NP40), wash buffer B (50 mM Tris-HCl (pH 7.5), 100 mM NaCl, 10 mM EDTA, 0.01% NP40), wash buffer C (50 mM Tris-HCl (pH 7.5), 175 mM NaCl, 10 mM EDTA, 0.01% NP40). After treatment with proteinase K in buffer 4 (20 mM Tris-HCl (pH 8.0), 10 mM EDTA, 400 mM NaCl, 0.5% SDS) at 56 °C overnight, DNA was purified using the FastGene Gel/PCR Extraction Kit (Nippon Genetics). The samples were analyzed by qPCR. Primers are listed in Supplementary Table 10. ChIP-seq experiments were performed by GENEWIZ. Tracks were visualized using the integrative genome viewer. ChIP-seq analysis were analyzed Cutadapt (V1.9.1) for QC, FastQC (V0.10.1) for QC assessment, Bowtie (V2.1.0) for mapping, strand cross-correlation (SCC) for ChIP quality assessment, MACS2 for peak calling, and R package ChIPpeakAnno for Peak annotated.
# [3] = Cell viability assay (WST-8), H9c2; type: cell-based, rat; conditions: rat, H9c2 myoblast cells, control (0 μM) = 100
# Procedure: (§1) A WST-8 (2-(2-methoxy-4-nitrophenyl)-3-(4-nitrophenyl)-5-(2,4-disulfophenyl)-2H-tetrazolium) assay using a Cell Counting Kit-8 (DOJINDO) was performed to measure cell viability using an EnSpire microplate reader (PerkinElmer).
# [4] = tested on: rat myoblast cell line H9c2; assay: Cell viability assay (WST-8), H9c2; type: cell-based; conditions: for cell viability in H9c2 cells: control (0 μM) = 100
# Procedure: as §1
# [5] = tested on: HbF in HUDEP-2 cells; assay: Flow cytometry of HbF-expressing HUDEP-2 cells; type: cell-based, human; set-up: Flow cytometric analysis in HUDEP-2 cells: unit not given here; conditions: for Percentage of HbF-expressing cells: HUDEP-2, 11 days
# Procedure: For the analysis of HbF expression, HUDEP-2 cells or cells differentiated from human CD34 + progenitor cells were fixed in 0.05% glutaraldehyde for 10 min, then washed two times with PBS containing 2% FBS (PBS/2% FBS) and permeabilized with 0.1% Triton X-100 (prepared in PBS/2% FBS; Life Technologies) for 5 min. After washing with PBS/2% FBS two times, cells were stained with allophycocyanin (APC)-conjugated HbF antibody (1:1, Invitrogen, MHFH05). One million cells were incubated with the HbF–APC antibody for 30 min in the dark at 4 °C. Cells were washed twice with PBS/2% FBS, then suspended in 0.2 ml PBS/2% FBS and analyzed using a FACSCalibur (Becton Dickinson). To assess erythroid differentiation, hematopoietic cells differentiated from human CD34 cells were stained with FITC-conjugated CD45 antibody (1:1, Becton Dickinson, 555482) and APC-conjugated glycophorin A antibody (1:20, Becton Dickinson, 551336). Stained cells were suspended in 0.2 ml PBS/2% FBS containing 1 μg/ml propidium iodide (Sigma) and analyzed by FACSCalibur. The results of flow cytometer were further analyzed by FlowJo software (Becton Dickinson).
# [6] = 50 μM, relative to DMSO = 1, replicate values
# [7] = 100 μM, relative to DMSO = 1, replicate values
# [8] = 200 μM, relative to DMSO = 1, replicate values
# [9] = 0.01 μM, relative to DMSO = 1, replicate values
smiles,measurement,setting,value
"NC(=O)NO [Hydroxyurea, hydroxyurea]",BCL11A expression in HUDEP-2 cells treated with hydroxyurea,[1]; [6],1.149 and 0.8339 and 1.127
same,ZBTB7A expression in HUDEP-2 cells treated with hydroxyurea,[1]; [6],1.5773 and 1.182 and 1.627
same,BCL11A expression in HUDEP-2 cells treated with hydroxyurea,[1]; [7],1.406 and 0.8316 and 1.105
same,ZBTB7A expression in HUDEP-2 cells treated with hydroxyurea,[1]; [7],3.378 and 1.925 and 2.126
same,BCL11A expression in HUDEP-2 cells treated with hydroxyurea,[1]; [8],0.9537 and 0.8461 and 1.024
same,ZBTB7A expression in HUDEP-2 cells treated with hydroxyurea,[1]; [8],5.802 and 2.404 and 2.049
same,expression of BCL11A and ZBTB7A,[1],did not significantly affect
same,"ChIP-qPCR, antibody against BCL11A","[2]; BGLT3 locus, HUDEP-2 cells treated with hydroxyurea, replicates 1a-3b",0.8842 and 1.017 and 0.83 and 0.5175 and 0.6913 and 0.7867
same,"ChIP-qPCR, antibody against BCL11A","[2]; HS1, HUDEP-2 cells treated with hydroxyurea, replicates 1a-3b",1.064 and 0.5507 and 0.5814 and 1.256 and 1.601 and 1.4807
same,"ChIP-qPCR, antibody against BCL11A","[2]; HS2, HUDEP-2 cells treated with hydroxyurea, replicates 1a-3b",0.08682 and 2.447 and 1.693 and 2.52 and 0.949 and 0.09517
same,"ChIP-qPCR, antibody against BCL11A","[2]; HS3, HUDEP-2 cells treated with hydroxyurea, replicates 1a-3b",1.655 and 3.8122 and 0.8818 and 0.7067 and 0.6435 and 2.151
same,"ChIP-qPCR, antibody against BCL11A","[2]; HS4, HUDEP-2 cells treated with hydroxyurea, replicates 1a-3b",0.8173 and 1.536 and 0.3618 and 0.975 and 1.091 and 0.6403
same,occupancies of BCL11A in the BGLT3 gene region,[2],decreased
same,"ChIP-qPCR, antibody against BCL11A","[2]; β-globin promoter, HUDEP-2 cells treated with hydroxyurea, replicates 1a-3b",0.5672 and 1.0178 and 0.4614 and 1.054 and 0.8774 and 0.8041
same,"ChIP-qPCR, antibody against BCL11A","[2]; γ-globin promoter, HUDEP-2 cells treated with hydroxyurea, replicates 1a-3b",0.6219 and 0.3788 and 0.8175 and 0.7872 and 0.7026 and 0.3349
same,"ChIP-qPCR, antibody against BCL11A","[2]; δ-globin promoter, HUDEP-2 cells treated with hydroxyurea, replicates 1a-3b",0.5737 and 0.8872 and 0.4941 and 0.547 and 0.6567 and 0.5438
Cc1c(C(=O)NC(CCC2CC2)C(=O)Nc2ccc(C#N)cc2)[nH]c2c1C(=O)CC(C)(C)C2 (stereo not shown) [RK-701],BCL11A expression in HUDEP-2 cells,[1]; [9],0.7709 and 1.287 and 1.333
same,ZBTB7A expression in HUDEP-2 cells,[1]; [9],0.7642 and 1.54 and 1.588
same,expression of BCL11A and ZBTB7A,[1],did not significantly affect
same,"ChIP-qPCR, antibody against BCL11A","[2]; BGLT3 locus, HUDEP-2 cells treated with RK-701, replicates",0.6314 and 0.7848 and 0.4856 and 0.8245 and 0.6776 and 0.5891
same,"ChIP-qPCR, antibody against BCL11A","[2]; HS1, HUDEP-2 cells treated with RK-701, replicates",0.3627 and 0.3768 and 0.661 and 0.2587 and 0.1661 and 0.2446
same,"ChIP-qPCR, antibody against BCL11A","[2]; HS2, HUDEP-2 cells treated with RK-701, replicates",0.4595 and 0.8137 and 0.6566 and 1.335 and 1.936 and 0.6063 and 1.138 and 0.7851
same,"ChIP-qPCR, antibody against BCL11A","[2]; HS3, HUDEP-2 cells treated with RK-701, replicates",0.4555 and 0.6595 and 0.2297 and 0.7103 and 0.2788 and 0.5275
same,"ChIP-qPCR, antibody against BCL11A","[2]; HS4, HUDEP-2 cells treated with RK-701, replicates",0.3987 and 0.3554 and 0.6174 and 0.2389
same,occupancies of BCL11A in the BGLT3 gene region,[2],significantly suppressed
same,"ChIP-qPCR, antibody against BCL11A","[2]; β-globin promoter, HUDEP-2 cells treated with RK-701, replicates",0.04573 and 0.1654 and 0.1051 and 0.1187 and 0.1597 and 0.09847 and 0.07533
same,"ChIP-qPCR, antibody against BCL11A","[2]; γ-globin promoter, HUDEP-2 cells treated with RK-701, replicates",0.1313 and 0.1159 and 0.3396 and 0.07171 and 0.121 and 0.0314
same,"ChIP-qPCR, antibody against BCL11A","[2]; δ-globin promoter, HUDEP-2 cells treated with RK-701, replicates",0.018 and 0.05206 and 0.04359 and 0.0353 and 0.01403 and 0.04746
same,viability at 0.039 μM,[3],101%
same,viability at 0.156 μM,[3],95.6%
same,cell viability in H9c2 cells,[4]; 0.039 μM,91.465 and 104.927
same,cell viability in H9c2 cells,[4]; 0.156 μM,91.465 and 106.022
same,cell viability in H9c2 cells,[4]; 0.625 μM,97.754 and 88.280 and 116.423
same,cell viability in H9c2 cells,[4]; 2.5 μM,95.509 and 92.994 and 114.051
same,cell viability in H9c2 cells,[4]; 10.0 μM,145.310 and 89.427 and 118.431
same,cytotoxic effect on viability,"[4]; H9c2, 5 days",essentially no cytotoxic effect
same,Flow cytometric analysis in HUDEP-2 cells,[5]; 0.01 μM,6.04 and 5.19 and 7.23
same,Flow cytometric analysis in HUDEP-2 cells,[5]; 0.03 μM,7.86 and 6.03 and 10.4
same,Flow cytometric analysis in HUDEP-2 cells,[5]; 0.1 μM,15.5 and 13.3 and 20.6
same,Flow cytometric analysis in HUDEP-2 cells,[5]; 0.3 μM,34.6 and 30.8 and 42.2
same,Flow cytometric analysis in HUDEP-2 cells,[5]; 1 μM,55.6 and 50.6 and 60.1
same,Flow cytometric analysis in HUDEP-2 cells,[5]; 3 μM,42.6 and 54.1 and 68.6
same,Percentage of HbF-expressing cells,[5]; 0.01 μM,6.2±0.8%
same,Percentage of HbF-expressing cells,[5]; 0.03 μM,8.1±1.8%
same,Percentage of HbF-expressing cells,[5]; 0.1 μM,16.5±3.1%
same,Percentage of HbF-expressing cells,[5]; 0.3 μM,35.9±4.7%
same,Percentage of HbF-expressing cells,[5]; 1 μM,55.4±3.9%
same,Percentage of HbF-expressing cells,[5]; 3 μM,55.1±10.6%
Cc1c(C(=O)N[C@H](CCC2CC2)C(=O)Nc2ccc(C#N)cc2)[nH]c2c1C(=O)CC(C)(C)C2 [RK-0133114],viability at 0.039 μM,[3],89.5%
same,viability at 0.156 μM,[3],100%
same,viability at 0.625 μM,[3]; 0.625 μM,116%
same,viability at 2.5 μM,[3]; 2.5 μM,85.5%
same,viability at 10 μM,[3]; 10.0 μM,106%
same,cell viability in H9c2 cells,[4]; 0.039 μM,95.980 and 104.160
same,cell viability in H9c2 cells,[4]; 0.156 μM,93.342 and 91.200
same,cell viability in H9c2 cells,[4]; 0.625 μM,99.497 and 102.560
same,cell viability in H9c2 cells,[4]; 2.5 μM,93.970 and 103.040
same,cell viability in H9c2 cells,[4]; 10.0 μM,89.573 and 98.080
same,Flow cytometric analysis in HUDEP-2 cells,[5]; 3 μM,7.47 and 5.8 and 9.04
same,HbF induction,[5]; HUDEP-2,failed to increase HbF
same,Percentage of HbF-expressing cells,[5]; 3 μM,7.4±1.3%
